These results are taken from patent publication US20240270762A1, “PENICILLIN-BINDING PROTEIN INHIBITORS” (priority 2021, published 2024).

≈ marks a conversion by molar mass, not a printed value. Bounds are passed on as bounds.

Experiment [1] addresses T1, A. baumannii PBP1a (Acinetobacter baumannii, UniProt A0ABX6CK30).
T1 sequence (A0ABX6CK30 1-851): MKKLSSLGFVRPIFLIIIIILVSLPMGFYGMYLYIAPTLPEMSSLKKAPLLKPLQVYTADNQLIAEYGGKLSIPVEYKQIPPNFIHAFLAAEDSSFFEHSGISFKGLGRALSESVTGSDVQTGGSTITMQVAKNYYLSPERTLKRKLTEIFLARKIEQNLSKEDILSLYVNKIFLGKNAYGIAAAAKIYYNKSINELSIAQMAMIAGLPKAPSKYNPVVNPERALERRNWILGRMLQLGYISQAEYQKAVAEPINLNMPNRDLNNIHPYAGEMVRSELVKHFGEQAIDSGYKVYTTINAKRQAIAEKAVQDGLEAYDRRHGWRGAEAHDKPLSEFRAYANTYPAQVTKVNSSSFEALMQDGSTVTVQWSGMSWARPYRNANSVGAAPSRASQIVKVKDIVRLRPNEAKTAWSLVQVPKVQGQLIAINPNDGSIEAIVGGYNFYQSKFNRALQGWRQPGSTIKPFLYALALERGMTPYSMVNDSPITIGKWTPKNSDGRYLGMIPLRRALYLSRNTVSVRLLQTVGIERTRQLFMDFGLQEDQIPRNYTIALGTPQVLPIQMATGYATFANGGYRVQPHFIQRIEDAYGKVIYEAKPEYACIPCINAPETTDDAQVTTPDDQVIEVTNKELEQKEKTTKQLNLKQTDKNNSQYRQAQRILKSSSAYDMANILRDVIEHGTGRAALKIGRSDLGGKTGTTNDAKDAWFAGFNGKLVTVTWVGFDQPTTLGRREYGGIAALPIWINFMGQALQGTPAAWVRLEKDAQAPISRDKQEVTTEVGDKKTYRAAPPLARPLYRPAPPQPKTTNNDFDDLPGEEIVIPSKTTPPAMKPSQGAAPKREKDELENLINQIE
Description: Bocillin-FL competition binding via gel filtration, A. baumannii PBP1a. To be noted: competition binding assay using Bocillin-FL via gel filtration; read-out: A. baumannii PBP1a Potency. A digest of the protocol:
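Enzyme pre-incubated with increasing inhibitor concentrations, then Bocillin-FL added for 15 min further incubation. Bocillin-FL-bound PBP separated by gel filtration and fluorescence read. EC50 from fitting fraction PBP bound vs inhibitor concentration to a Hill-type equation (ymin, ymax, n).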
In general terms: In gel filtration, larger molecules generally elute earlier.

The subject of experiment [2] is A. baumannii CDC-0083. Description: microbe, parasite or virus in culture. Type of experiment: cell-based. The conditions noted are these: Acinetobacter baumannii, CDC0083, read-out: MIC, A. baumannii CDC-0083.
The test system of experiment [3] is P. aeruginosa CDC-0090. Description: microbe, parasite or virus in culture. The format is cell-based. The conditions noted are these: Pseudomonas aeruginosa, CDC0090, read-out: Minimum inhibitory concentration, P. aeruginosa CDC-0090.
Experiment [4] concerns P. aeruginosa CDC-0095. The experiment in a line: microbe, parasite or virus in culture. The format is cell-based. To be noted: Pseudomonas aeruginosa, CDC0095, read-out: Minimum inhibitory concentration, P. aeruginosa CDC-0095.
Experiment [5] concerns the target T2, PBP1a from Acinetobacter baumannii (ATCC 19606) (Acinetobacter baumannii, UniProt A0ABX6CK30).
T2 sequence (A0ABX6CK30 1-851): T1 sequence (A0ABX6CK30 1-851)
Description: Bocillin-FL fluorescence polarization competition binding, A. baumannii PBP1a. The conditions noted are these: fluorescence polarization competition binding assay using Bocillin-FL; read-out: A. baumannii PBP1a Potency. An excerpt:
To determine the ability of boronic acid-based test PBP inhibitors to bind Penicillin Binding Proteins (PBPs), Bocillin-FL (fluorescently-labeled penicillin V; ThermoFisher Scientific) was used in a fluorescence polarization (FP) competition binding assay to assess inhibitor binding to PBP3 from Escherichia coli (K-12), PBP3 from Pseudomonas aeruginosa (PAO1), PBP1a and PBP3 from Acinetobacter baumannii (ATCC 19606), and PBP2 from Neisseria gonorrhoeae (FA19). PBPs were cloned and purified as described previously (E. coli PBP3, King, D. T, et al., ACS Infectious Diseases 2015, 1, 175-184; P. aeruginosa PBP3, Han et. al., PNAS 2010, 107 (51), 22002-22007; A. baumannii PBPs, Penwell et. al., Antimicrob. Agents Chemother. 2015, 59 (3), 1680-1689; N. gonorrhoeae PBP2, Singh et. al., J. Biol. Chem. 2019, 294 (38), 14020-14032). To establish assay conditions for competition binding, enzyme titration/saturation binding experiments were initially performed. Bocillin-FL was prepared at 0.2 μM in a buffer comprised of 50 mM Hepes (pH 8.0), 300 mM NaCl and 10% (v/v) glycerol for reactions with E. coli, P. aeruginosa and N. gonorrhoeae PBPs, and 25 mM Tris (pH 8.0), 200 mM NaCl, 10% (v/v) glycerol and 0.005% (v/v) Tween 20 for reactions with A. baumannii PBPs. Saturation binding was performed by mixing 40 μl of PBP solutions ranging in concentrations from 0-24 μM with 40 μl of the 0.2 μM Bocillin-FL solution, in individual wells of a black 384-well microplate. FP was measured immediately upon mixing (Excitation, 490 nm; Emission, 520 nm; g-factor, 0.96), using a Cytation3 (BioTek) microplate reader and measured continuously for up to 120 minutes. The FP response stabilized after 15 minutes for P. aeruginosa and A. baumannii PBP3, 30 minutes for E. coli PBP3 and A. baumannii PBP1a, and less than 1 minute for N. gonorrhoeae PBP2. […] The competition binding assay (80 μl final volume) was validated using beta-lactams and PBPs at final concentrations of: 1.5 μM for E. coli PBP3; 0.75 μM for P. aeruginosa PBP3; 1 μM for A. baumannii PBP1a; 0.2 μM for A. baumannii PBP3; and 0.25 μM for N. gonorrhoeae PBP2. Bocillin-FL was at 0.1 μM (0.05 μM with A. baumannii PBP1a) and beta-lactam concentrations ranged from 0-1,000 μM. E. coli PBP3 was incubated with increasing concentrations of ampicillin in a black 384-well microplate (Corning) for 30 minutes. P. aeruginosa PBP3 was incubated for 15 minutes with aztreonam, whereas A. baumannii PBP1a and PBP3 were incubated for 15 minutes with meropenem, and then Bocillin-FL was added followed immediately by the FP measurement for up to 60 minutes. […] The beta-lactam potency was reported as the concentration of beta-lactam required to reduce the amount of PBP bound-Bocillin-FL by 50% (EC50). […] The EC50 of aztreonam was determined to be <0.5 μM for P. aeruginosa PBP3. […] Binding assays for boronic acid PBP inhibitors were performed in an identical fashion for the respective PBPs.
In general terms: Polarisation of emitted light reports the rotation of a fluorescent probe.

For `O=C(O)c1cccc2c1OB(O)[C@@H](NC(=O)C(NC(=O)N1CCN(Cc3ccc(O)c(O)c3Cl)C(=O)C1=O)c1ccc(P(=O)(O)O)cc1)C2` (stereo partly drawn) [Example 24, (3R)-3-(2-(4-(2-chloro-3,4-dihydroxybenzyl)-2,3-dioxopiperazine-1-carboxamido)-2-(4-phosphonophenyl)acetamido)-2-hydroxy-3,4-dihydro-2H-benzo[e][1,2]oxaborinine-8-carboxylic acid], the EC50 in experiment [1] lay within 10 to 50 µM. Also, the MIC is less than 1 µg/mL in experiment [2], 8 to 16 µg/mL (≈ 11.2 to 22.3 µM) in experiment [3] and less than 1 µg/mL in experiment [4]. The IC50 in experiment [5] is more than 250 µM.
As to `O=C(O)c1c(F)ccc2c1OB(O)[C@@H](NC(=O)C(NC(=O)N1CCN(Cc3cc(F)c(O)c(O)c3Cl)C(=O)C1=O)c1ccc(P(=O)(O)O)cc1)C2` (stereo partly drawn) [Example 45, (3R)-3-(2-(4-(2-chloro-5-fluoro-3,4-dihydroxybenzyl)-2,3-dioxopiperazine-1-carboxamido)-2-(4-phosphonophenyl)acetamido)-7-fluoro-2-hydroxy-3,4-dihydro-2H-benzo[e][1,2]oxaborinine-8-carboxylic acid], in experiment [1], the EC50 lay within 10 to 50 µM. For the same compound, the MIC in experiment [2], in experiment [3] and in experiment [4] was less than 1 µg/mL throughout. Also, the IC50 in experiment [5] was more than 250 µM.
